Measurements taken from PMC8241142 (Drug Delivery, 2017).

What was measured:
[1] = In vitro release of DZP samples (USP II paddle method); type: physicochemical; conditions: deionized water, 37 °C, 50 rpm
Procedure: (§1) Dissolution studies of samples were carried out according to a USP II paddle method at 37 °C with a stirrer rotation speed of 50 rpm in a dissolution apparatus (ZRD6-B, Shanghai Huanghai Medicament Test Instrument Factory, Shanghai, China). […] At predetermined time intervals, 5 ml samples were taken out and replaced by fresh medium immediately. Then, samples were passed through a 0.22 μm membrane filter and were transferred to UV/Vis analysis at the wavelength of 240 nm.

[2] = test system: mouse ear swelling caused by xylene; assay: Mouse ear swelling test (MEST); type: in vivo, Kunming mice; conditions: intragastric, 0.6 mg NMS, 50 min
Procedure: The mouse ear swelling test was developed to further evaluate the swelling inhibition potential of NMS/CMS. In detail, 16 male Kunming mice weighing 18–22 g were randomly divided into four groups (n = 4): NS group (negative control group), NMS group (positive control group), NMS/CMS group ([…]) and NMS/MCM41 group ([…]). Samples containing 0.6 mg NMS were suspended in normal saline and imposed to mice in all groups by intragastric administration. Mice in NS group were exposed to normal saline only. At 30 min after administration, 0.1 ml xylene was applied on each side of the left ear of mice, and the right ear regarded as a reference was left untreated. After 50 min, mice were executed, both ears were removed, and tissues with diameter of 0.6 cm were cut off by hole punch. The weight of the tissues cut from left and right ears was measured by electronic scale. The repression rate and the degree of ear swelling were, respectively, expressed as: (3) Repression rate (%)=(wL-wR)negative control-(wL-wR)test/(wL-wR)negative control-(wL-wR)positive control×100 (4) Swelling rate (%)=wL-wR/wR×100 where w L is the weight of tissue cut from the left ear and w R is the weight of tissue cut from the right ear of the same mice.

[3] = In vitro release of NMS samples (USP II paddle method, PBS pH 7.8); type: physicochemical; conditions: PBS pH 7.8, 37 °C
Procedure: as §1
Samples containing 5 mg NMS were put into 250 ml phosphate buffer solutions (PBS, pH 7.8) at 37 °C.

| SMILES | cumulative release percentage within 24 h [1] | ear swelling rate [2] | accumulative release percentage within 24 h [3] |
| --- | --- | --- | --- |
| CN1C(=O)CN=C(c2ccccc2)c2cc(Cl)ccc21 [DZP, Diazepam] | 66.75% | – | – |
| CS(=O)(=O)Nc1ccc([N+](=O)[O-])cc1Oc1ccccc1 [NMS, Nimesulide] | – | 32.4% | 93.1% |
